Read-outs that look alike come from different tables or passages of the source.

Assay [1] has as its target Gardos channel of erythrocytes (Homo sapiens, UniProt O15554). In words: cell-based. The settings on record: for inhibition at 10 µM: read-out: Gardos Channel % Inhibition.
The test system of assay [2] is NIH 3T3 mouse fibroblast cells. In words: Mitogen-induced cell proliferation. In kind it is cell-based. Conditions: for inhibition at 10 µM: NIH3T3, read-out: Mitogen-induced cell proliferation % Inhibition; for IC50: NIH3T3, read-out: Mitogen-induced cell proliferation IC50. The source says: Other cell lines, e.g., cancer cells, endothelial cells and fibroblasts, as well as many others, may be used in the cell proliferation assay. Selection of a particular cell line will depend in part on the desired application, and is well within the capabilities of an ordinarily skilled artisan.

The mark [3] stands for this setting: erythrocytes, read-out: Gardos Channel IC50.

Sequence of Gardos channel of erythrocytes (O15554 whole entry): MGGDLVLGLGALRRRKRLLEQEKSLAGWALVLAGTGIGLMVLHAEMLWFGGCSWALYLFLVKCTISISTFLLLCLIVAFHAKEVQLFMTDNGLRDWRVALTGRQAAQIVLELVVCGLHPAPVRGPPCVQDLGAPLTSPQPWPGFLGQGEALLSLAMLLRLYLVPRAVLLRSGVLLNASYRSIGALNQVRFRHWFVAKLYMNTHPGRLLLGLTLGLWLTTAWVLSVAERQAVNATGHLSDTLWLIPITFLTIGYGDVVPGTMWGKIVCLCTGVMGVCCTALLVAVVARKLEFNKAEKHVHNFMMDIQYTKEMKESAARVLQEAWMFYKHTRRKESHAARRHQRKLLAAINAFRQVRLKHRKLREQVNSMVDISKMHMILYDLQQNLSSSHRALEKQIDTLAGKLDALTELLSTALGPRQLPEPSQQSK

On to `OC(c1ccccc1)(c1ccccc1)c1ccc(-c2ccccc2)cc1` [Compound 21], for which, in assay [1], the IC50 amounted to 725 nM and the inhibition at 10 µM worked out at 97.3%. In addition, in assay [2], the inhibition at 10 µM is 99% and the IC50 is 2800 nM.
Taken in the same sequence, the figures for `OCCC(c1ccccc1)(c1ccccc1)c1ccccc1` [Compound 22] were 302 nM, 82%, 85% and 6800 nM.
As to `O=C1CC[C@@H](COC(c2ccccc2)(c2ccccc2)c2ccccc2)N1` [Compound 23], the IC50 worked out at 216 nM in assay [1] (setting [3]) and 3800 nM in assay [2]. For the same compound, the inhibition at 10 µM in assay [1] amounted to 97.9%; in assay [2], 77%.
For the compound `O=C1CC[C@@H](COC(c2ccccc2)(c2ccccc2)c2ccccc2)O1` [Compound 24], the IC50 in assay [1] (setting [3]) stood at 135 nM. In addition, the values for the inhibition at 10 µM in assay [1] and in assay [2] were 97.9% and 29%, respectively.
For `O=C(O)CNC(c1ccccc1)(c1ccccc1)c1ccccc1` [Compound 25], the inhibition at 10 µM came to 34.4% in assay [1] and 70% in assay [2].
Take `N#CCC(c1ccc(Cl)cc1)(c1ccc(Cl)cc1)c1ccc(Cl)cc1` [Compound 26]: the inhibition at 10 µM in assay [1] is 10%. Moreover, in assay [2], the inhibition at 10 µM was 99% and the IC50 was 1300 nM.
For `Fc1ccccc1C(c1ccccc1)c1ccccc1` [Compound 27], the figures for the IC50 in assay [1] (setting [3]) and in assay [2] were 449 nM and 3000 nM, respectively. Moreover, the inhibition at 10 µM is 100% in assay [1] and 99% in assay [2].
Taken in the same sequence, the figures for `O=C(O)C(Cc1ccc2ccccc2c1)C(c1ccccc1)(c1ccccc1)c1ccccc1` (stereo not drawn) [Compound 28] were 5220 nM, 700 nM, 98% and 99%.
Taken in the same sequence, the figures for `NCCC(c1ccccc1)(c1ccccc1)c1ccccc1` [Compound 29] were 649 nM, 3100 nM, 100% and 99%.
Regarding `CCOC(=O)C(C(=O)OCC)C(c1ccccc1)(c1ccccc1)c1ccccc1` [Compound 31], the IC50 in assay [1] is 445 nM; in assay [2] it was 2600 nM. In addition, the inhibition at 10 µM came out at 99% in assay [1] and 89% in assay [2].
On to `CCOC(=O)C(C(=O)OCC)C(c1ccccc1)(c1ccccc1)c1ccccc1Cl` [Compound 33], for which, in assay [1], the IC50 turned out to be 125 nM and the inhibition at 10 µM came out at 100%. Besides, in assay [2], the inhibition at 10 µM is 45%.
Regarding `NOC(c1ccccc1)(c1ccccc1)c1ccccc1` [Compound 34], in assay [1] (setting [3]), the IC50 came to 939 nM. Also, the inhibition at 10 µM in assay [1] worked out at 96.3%; in assay [2], 68%.
Turning to `OCC(c1ccccc1)(c1ccccc1)c1ccccc1` [Compound 35], in assay [1], the IC50 stood at 430 nM and the inhibition at 10 µM is 95.8%. Further, in assay [2], the inhibition at 10 µM stood at 38%.
Consider `CC(=O)C(c1ccccc1)(c1ccccc1)c1ccccc1` [Compound 37], for which the IC50 in assay [1] (setting [3]) was 57 nM. In addition, the inhibition at 10 µM in assay [1] is 100%; in assay [2], 31%.
On to `O=CCC(c1ccccc1)(c1ccccc1)c1ccccc1` [Compound 38], for which the IC50 was 220 nM in assay [1] (setting [3]) and 800 to 2300 nM in assay [2]. Besides, the inhibition at 10 µM in assay [1] is 92%; in assay [2], 99%.
For the compound `O=C(O)CC(c1ccc(Cl)cc1)(c1ccc(Cl)cc1)c1ccc(Cl)cc1` [Compound 39], the IC50 in assay [1] (setting [3]) was determined as 1680 nM; in assay [2], 3300 nM. Moreover, the inhibition at 10 µM in assay [1] stood at 97%; in assay [2], 99%.
As to `NCCC(c1ccc(Cl)cc1)(c1ccc(Cl)cc1)c1ccc(Cl)cc1` [Compound 41], the IC50 came to 2070 nM in assay [1] (setting [3]) and 1400 nM in assay [2]. Also, the inhibition at 10 µM in assay [1] came out at 97%; in assay [2], 99%.
Take `Oc1ccccc1C(O)(c1ccccc1)c1ccccc1` [Compound 42]: the IC50 in assay [1] is 615 nM; in assay [2], 3300 nM. The inhibition at 10 µM in assay [1] and in assay [2] was 99% each time.
Regarding `OC(c1ccccc1)(c1ccccc1)c1ccc(Cl)cc1` [Compound 43], in assay [1], the IC50 is 61 nM and the inhibition at 10 µM came to 99%. For the same compound, in assay [2], the inhibition at 10 µM was found to be 99% and the IC50 was 800 nM.
`C#C[Si](c1ccccc1)(c1ccccc1)c1ccccc1` [Compound 44] had an IC50 in assay [1] of 388 nM. The inhibition at 10 µM in assay [1] is 79.4%; in assay [2] it was 82%.
For the compound `COC(=O)c1ccccc1C(c1ccccc1)c1ccccc1` [Compound 45], the figures for the IC50 in assay [1] (setting [3]) and in assay [2] were 320 nM and 800 nM, respectively. Besides, the inhibition at 10 µM in assay [1] stood at 98%; in assay [2] it was 99%.
As to `CCOC(c1ccccc1)(c1ccccc1)c1ccccc1` [Compound 46], the IC50 was found to be 76 nM in assay [1] (setting [3]) and 2200 nM in assay [2]. Further, the inhibition at 10 µM in assay [1] turned out to be 99.5%; in assay [2] it was 99%.
The corresponding values for `CCOC(=O)C(c1ccccc1)(c1ccccc1)c1ccccc1` [Compound 47] are 193 nM, 800 nM, 100% and 99%.
With `OC(C#Cc1ccccc1)(c1ccccc1)c1ccccc1` [Compound 48], in assay [1], the IC50 came to 1290 nM and the inhibition at 10 µM was found to be 100%. Further, in assay [2], the inhibition at 10 µM stood at 98% and the IC50 stood at 400 nM.
Take `N#CC(c1ccccc1)(c1ccccc1)c1ccc([N+](=O)[O-])cc1Cl` [Compound 49]: the IC50 in assay [1] (setting [3]) was 336 nM; in assay [2], 300 nM. For the same compound, the values for the inhibition at 10 µM in assay [1] and in assay [2] were 88% and 94%, respectively.
As to `OC(c1ccccc1)(c1ccc(Br)cc1)c1ccc(Br)cc1` [Compound 50], the IC50 in assay [1] was 288 nM; in assay [2] it was 500 nM. Besides, the inhibition at 10 µM in assay [1] was determined as 100%; in assay [2], 99%.
On to `COC(c1ccccc1)(c1ccccc1)c1ccccc1` [Compound 51], for which the IC50 in assay [1] (setting [3]) turned out to be 551 nM. Besides, the figures for the inhibition at 10 µM in assay [1] and in assay [2] were 100% and 37%, respectively.
As for `N#CC(c1ccccc1)(c1ccccc1)c1ccc([N+](=O)[O-])cc1` [Compound 52], the IC50 is 255 nM in assay [1] (setting [3]) and 1700 nM in assay [2]. Besides, the figures for the inhibition at 10 µM in assay [1] and in assay [2] were 94% and 93%, respectively.
For the compound `COC(=O)CC(c1ccccc1)(c1ccccc1)c1ccccc1` [Compound 53], the IC50 in assay [1] (setting [3]) was 101 nM. The inhibition at 10 µM in assay [1] came out at 98%; in assay [2], 74%.
For `Nc1ccc(C(O)(c2ccc(N)cc2)c2ccc(N)cc2)cc1` [Compound 54], the inhibition at 10 µM in assay [1] stood at 17.4%. Moreover, in assay [2], the inhibition at 10 µM stood at 99% and the IC50 turned out to be 200 nM.
In the case of `CCOC(=O)C(C(=O)OCC)C(c1ccccc1)(c1ccccc1)c1ccccc1F` [Compound 55], in assay [1] (setting [3]), the IC50 is 58 nM. The results for the inhibition at 10 µM in assay [1] and in assay [2] were 98% and 5%, respectively.
As for `CON(C)C(=O)CC(c1ccccc1)(c1ccccc1)c1ccccc1` [Compound 56], the IC50 in assay [1] (setting [3]) was 275 nM; in assay [2] it was 3200 nM. The inhibition at 10 µM in assay [1] was found to be 91%; in assay [2], 99%.
On to `CCOC(=O)CNC(c1ccccc1)(c1ccccc1)c1ccccc1` [Compound 57], for which the IC50 in assay [1] (setting [3]) was found to be 1510 nM. In addition, the figures for the inhibition at 10 µM in assay [1] and in assay [2] were 89% and 21%, respectively.
With `COc1ccc(C(O)(c2ccccc2)c2ccc(OC)cc2)cc1` [Compound 58], in assay [1], the IC50 was determined as 247 nM and the inhibition at 10 µM was 99.6%. In assay [2], the inhibition at 10 µM came to 99%.
As for `Cc1ccc(C(O)(c2ccc(C)cc2)c2ccc(C)cc2)cc1` [Compound 59], in assay [1], the IC50 was determined as 489 nM and the inhibition at 10 µM stood at 100%. Besides, in assay [2], the inhibition at 10 µM worked out at 98% and the IC50 is 3000 nM.
As to `COc1ccc(C(O)(c2ccccc2)c2ccccc2)cc1` [Compound 60], in assay [1], the IC50 was determined as 304 nM and the inhibition at 10 µM worked out at 98%. Also, the inhibition at 10 µM in assay [2] came to 31%.
With `OC(c1ccccc1)(c1ccccc1)c1cccc2ccccc12` [Compound 61], in assay [1], the IC50 is 2370 nM and the inhibition at 10 µM was found to be 85%. In assay [2], the inhibition at 10 µM stood at 99% and the IC50 was determined as 1600 nM.
Regarding `COC(=O)c1ccc(C(O)(c2ccccc2)c2ccccc2)cc1` [Compound 62], in assay [1], the IC50 was 98 nM and the inhibition at 10 µM came to 98%. Further, in assay [2], the inhibition at 10 µM was 31%.
Turning to `OC(c1ccccc1)(c1ccccc1)c1cccnc1` [Compound 63], in assay [1], the IC50 was found to be 1020 nM and the inhibition at 10 µM stood at 69%. Moreover, the inhibition at 10 µM in assay [2] worked out at 37%.
As to `N#CCCC(c1ccccc1)(c1ccccc1)c1ccccc1` [Compound 64, 4,4,4-triphenylbutronitrile], the values for the IC50 in assay [1] (setting [3]) and in assay [2] were 88 nM and 5800 nM, respectively. Also, the results for the inhibition at 10 µM in assay [1] and in assay [2] were 100% and 63%, respectively.
On to `O=CCC(c1ccc(Cl)cc1)(c1ccc(Cl)cc1)c1ccc(Cl)cc1` [Compound 65], for which the IC50 stood at 435 nM in assay [1] and 1600 nM in assay [2]. In addition, the inhibition at 10 µM in assay [1] was 98%; in assay [2], 99%.
For the compound `Brc1ccc(C(c2ccccc2)c2ccc(Br)cc2)cc1` [Compound 66], in assay [1], the IC50 worked out at 384 nM and the inhibition at 10 µM was 67.2%. Also, the inhibition at 10 µM in assay [2] turned out to be 73%.
Turning to `CCC(c1ccccc1)(c1ccccc1)c1ccc(O)cc1` [Compound 67], the IC50 in assay [1] (setting [3]) is 430 nM; in assay [2], 1400 nM. Besides, the inhibition at 10 µM in assay [1] came to 96.1%; in assay [2] it was 98%.

Values taken from patent publication US7531573B2 (priority 1994, dated 2009).
